Values quoted from earlier work, collected in patent publication US20120148662A1, “Formulation” (priority 2010, published 2012).

Legend:
[1] = dosed conventionally

With `CCC(CC)CC1(C(=O)Nc2ccccc2SC(=O)C(C)C)CCCCC1` [dalcetrapib, S-[2-([[1-(2-ethylbutyl)-cyclohexyl]-carbonyl]amino)phenyl]2-methylpropanethioate] as the compound, how does the aqueous solubility read?
The aqueous solubility was “extremely low”.

And the oral bioavailability [1]?
Its oral bioavailability is “low”.
